Experimental data as given in the NIST ThermoML archive (doi:10.1021/je900210h).
± gives the expanded uncertainty stated by the source.

Details: Fluid (supercritical or subcritical phases), Coaxial cylinder method

FCC(F)(F)F [1,1,1,2-tetrafluoroethane]
Details | thermal conductivity [W/m/K]
375.18 K, 4340 kPa | 0.055 ± 0.004
375.18 K, 4942 kPa | 0.0559 ± 0.0023
375.18 K, 5054 kPa | 0.0557 ± 0.0023
375.18 K, 5057 kPa | 0.055 ± 0.002
375.19 K, 4163 kPa | 0.0881 ± 0.0054
375.19 K, 4379 kPa | 0.0546 ± 0.0039
375.19 K, 4458 kPa | 0.0541 ± 0.0038
375.19 K, 4551 kPa | 0.0545 ± 0.0024
375.19 K, 4557 kPa | 0.0538 ± 0.0024
375.2 K, 4166 kPa | 0.0849 ± 0.0086
375.2 K, 4456 kPa | 0.053 ± 0.004
375.21 K, 4170 kPa | 0.0823 ± 0.0079
375.21 K, 4171 kPa | 0.0814 ± 0.0078
375.23 K, 4178 kPa | 0.0777 ± 0.011
375.23 K, 4181 kPa | 0.076 ± 0.011
375.24 K, 4120 kPa | 0.1016 ± 0.013
375.24 K, 4189 kPa | 0.0731 ± 0.0091
375.28 K, 4145 kPa | 0.0986 ± 0.0054
375.28 K, 4150 kPa | 0.1002 ± 0.0044
375.28 K, 4156 kPa | 0.1002 ± 0.0067
375.28 K, 4162 kPa | 0.0994 ± 0.0042
375.28 K, 4167 kPa | 0.0984 ± 0.014
375.28 K, 4208 kPa | 0.0667 ± 0.0083
375.29 K, 4139 kPa | 0.0943 ± 0.018
375.29 K, 4174 kPa | 0.0955 ± 0.015
375.3 K, 4089 kPa | 0.0573 ± 0.0058
375.3 K, 4181 kPa | 0.0927 ± 0.0065
375.3 K, 4229 kPa | 0.0627 ± 0.0062
375.31 K, 4189 kPa | 0.0889 ± 0.0043
375.31 K, 4254 kPa | 0.0613 ± 0.0044
375.31 K, 4265 kPa | 0.061 ± 0.009
375.31 K, 4294 kPa | 0.0605 ± 0.0026
375.31 K, 4307 kPa | 0.0603 ± 0.0028
375.31 K, 4341 kPa | 0.06 ± 0.003
375.32 K, 4130 kPa | 0.0916 ± 0.014
375.32 K, 4134 kPa | 0.0856 ± 0.015
375.32 K, 4197 kPa | 0.0848 ± 0.0045
375.32 K, 4389 kPa | 0.0592 ± 0.0044
375.32 K, 4450 kPa | 0.0585 ± 0.0053
375.32 K, 4490 kPa | 0.0588 ± 0.0034
375.33 K, 4129 kPa | 0.087 ± 0.017
375.33 K, 4204 kPa | 0.0816 ± 0.0042
375.34 K, 3828 kPa | 0.0367 ± 0.0029
375.34 K, 4085 kPa | 0.0517 ± 0.0043
375.34 K, 4126 kPa | 0.0773 ± 0.024
375.36 K, 4121 kPa | 0.0721 ± 0.02
375.36 K, 4216 kPa | 0.0746 ± 0.0041
375.37 K, 4128 kPa | 0.0763 ± 0.019
375.38 K, 4225 kPa | 0.0686 ± 0.0096
375.39 K, 4235 kPa | 0.0668 ± 0.0037
375.4 K, 4126 kPa | 0.0683 ± 0.032
375.4 K, 4244 kPa | 0.0645 ± 0.0028
375.42 K, 3349 kPa | 0.0298 ± 0.0015
375.42 K, 4115 kPa | 0.0611 ± 0.021
375.42 K, 4265 kPa | 0.0608 ± 0.0024
375.43 K, 4051 kPa | 0.0425 ± 0.0036
375.43 K, 4280 kPa | 0.0596 ± 0.0024
375.43 K, 4292 kPa | 0.0588 ± 0.0024
375.45 K, 4349 kPa | 0.0567 ± 0.0024
375.46 K, 4029 kPa | 0.0397 ± 0.0025
375.46 K, 4107 kPa | 0.0545 ± 0.0079
375.46 K, 4118 kPa | 0.0591 ± 0.0024
375.46 K, 4473 kPa | 0.0555 ± 0.0023
375.46 K, 4527 kPa | 0.055 ± 0.002
375.46 K, 4625 kPa | 0.055 ± 0.002
375.46 K, 4681 kPa | 0.0552 ± 0.0023
375.46 K, 4735 kPa | 0.0582 ± 0.0024
375.48 K, 4848 kPa | 0.0566 ± 0.0023
375.49 K, 4097 kPa | 0.0508 ± 0.0088
375.51 K, 4107 kPa | 0.0521 ± 0.0053
375.52 K, 4086 kPa | 0.0475 ± 0.0024
375.53 K, 4097 kPa | 0.0492 ± 0.0021
375.56 K, 4055 kPa | 0.0434 ± 0.0019
375.58 K, 4040 kPa | 0.0421 ± 0.002
375.59 K, 3196 kPa | 0.0287 ± 0.0016
375.6 K, 4065 kPa | 0.0432 ± 0.0019
375.61 K, 3999 kPa | 0.0395 ± 0.0021
375.61 K, 4059 kPa | 0.0425 ± 0.0019
375.63 K, 3965 kPa | 0.0378 ± 0.0018
375.65 K, 4023 kPa | 0.0393 ± 0.0018
375.66 K, 3917 kPa | 0.0361 ± 0.0018
375.69 K, 3874 kPa | 0.0343 ± 0.0026
375.72 K, 4178 kPa | 0.0857 ± 0.0041
375.72 K, 4187 kPa | 0.0881 ± 0.0034
375.73 K, 3772 kPa | 0.0319 ± 0.0016
375.73 K, 4179 kPa | 0.083 ± 0.004
375.73 K, 4199 kPa | 0.0841 ± 0.0035
375.74 K, 4210 kPa | 0.0799 ± 0.0036
375.76 K, 3000 kPa | 0.0274 ± 0.0015
375.76 K, 3658 kPa | 0.0306 ± 0.0015
375.76 K, 4161 kPa | 0.0752 ± 0.0054
